Source: the NIST ThermoML archive (doi:10.1021/je700022b)

Experiment: xn = mol fraction of the nth substance listed
Details: Liquid; for mass density: Constant-volume piezometry

CCCCn1cc[n+](C)c1.F[P-](F)(F)(F)(F)F [1-butyl-3-methylimidazolium hexafluorophosphate] + O=C=O
Details | mass density, 293.15 K [kg/m3] | mass density, 313.15 K [kg/m3] | mass density, 333.15 K [kg/m3] | mass density, 353.15 K [kg/m3] | viscosity, 293.15 K [mPa·s] | viscosity, 313.15 K [mPa·s] | viscosity, 333.15 K [mPa·s] | viscosity, 353.15 K [mPa·s]
10000 kPa, x2 = 0.056 | 1371 | 1350 | 1327 | 1306 | 372 | 119 | 49.3 | 25.2
10000 kPa, x2 = 0.123 | 1368 | 1342 | 1313 | 1286 | 277 | 84.8 | 40.6 | 21.6
10000 kPa, x2 = 0.229 | 1361 | 1329 | 1293 | 1260 | 135 | 54.1 | 27.2 | 15.8
10000 kPa, x2 = 0.332 | 1354 | 1313 | 1268 | 1226 | 89.2 | 36.9 | 20.5 | 12.3
10000 kPa, x2 = 0.44 | 1346 | 1288 | 1223 | 1162 | 43.9 | 24.7 | 16.1 | 10.7
15000 kPa, x2 = 0 | 1377 | 1362 | 1346 | 1330 | 468 | 140 | 61 | 29.3
15000 kPa, x2 = 0.056 | 1374 | 1356 | 1338 | 1319 | 397 | 125 | 51.9 | 26.4
15000 kPa, x2 = 0.123 | 1371 | 1351 | 1330 | 1310 | 287 | 90.1 | 42.8 | 22.6
15000 kPa, x2 = 0.229 | 1365 | 1344 | 1321 | 1299 | 144 | 55.8 | 28.3 | 16.5
15000 kPa, x2 = 0.332 | 1358 | 1337 | 1308 | 1284 | 91.9 | 39.9 | 21.1 | 12.7
15000 kPa, x2 = 0.44 | 1351 | 1323 | 1286 | 1255 | 45.9 | 24.8 | 16.5 | 10.8
20000 kPa, x2 = 0 | 1379 | 1364 | 1349 | 1332 | 504 | 151 | 63.2 | 30.5
20000 kPa, x2 = 0.056 | 1377 | 1360 | 1343 | 1325 | 424 | 132 | 54.5 | 28
20000 kPa, x2 = 0.123 | 1375 | 1356 | 1338 | 1319 | 310 | 92.4 | 44.2 | 23.4
20000 kPa, x2 = 0.229 | 1368 | 1350 | 1329 | 1310 | 150 | 61.2 | 29.1 | 16.9
20000 kPa, x2 = 0.332 | 1362 | 1342 | 1319 | 1298 | 100 | 41.6 | 21.7 | 12.8
20000 kPa, x2 = 0.44 | 1355 | 1330 | 1304 | 1278 | 46.8 | 26.8 | 17 | 10.9
